Reference: patent US11985975B1, “N-[(2-{[(furan-ylcarbonyl)carbamothioyl]amino }phenyl)carbamothioyl]furan-2-carboxamide as an eco-friendly insecticidal agent against Spodoptera littoralis (boisd.)” (KING FAISAL UNIVERSITY, priority 2023, dated 2024)
≈ marks a conversion by molar mass, not a printed value. Read-outs that look alike come from different tables or passages of the source.

Test system: Spodoptera littoralis larvae (second and fourth instars)
Assay: Insecticidal bioassay screening (castor leaf dip), laboratory strain of cotton leafworm
Format: in vivo
Settings: for LC90 (mg/L) at 95%: after 72 hrs of treatment; for Toxicity index %: after 72 hrs, reference LC50/compound LC50 x 100; for LC50: Spodoptera littoralis, foliar
Procedure: Five concentrations (200, 100, 50, 25, 12.5 ppm) were designed for this synthetic compound and the reference Diflubenzuron compound as the dynamic ingredients based on ppm via diluting the commercial formulation.
In this experiment, castor leaves are immersed in each of the previously prepared concentrations of the components for 10 seconds and then left to dry for 60 minutes. Larvae of the second and fourth instars of each checked strain are prepared with treated leaves in gauze-covered glass containers for 72 hrs. An untreated control is made in which leaves are dipped in triton x-100 and distilled water only. Then the preserved leaves were removed & fresh, untreated leaves were provided for 72 hours. Three replicates (10 larvae each) were checked for each concentration. Daily inspection was carried out for all treatments and mortality percentages were recorded 3 days (72 hours) after treatment. The average mortality percentage was corrected employing Abbott's formula. The corrected mortality rate for each of the previously synthesized compounds is statistically calculated according to Finney (1970). Through this rate, the corresponding concentration test lines (LDP lines) are assessed.

[1] = 72 h, read-out: LC50 (mg/L) at 95%, 2nd instar larvae, after 72 hrs of treatment
[2] = 72 h, read-out: LC50 (mg/L) at 95%, 4th instar larvae, after 72 hrs of treatment
[3] = against Spodoptera littoralis under laboratory conditions (instar not stated)

Row | Structure (SMILES) | LC90 (mg/L) at 95% (2nd instar larvae) | Toxicity index % (2nd instar larvae) | LC90 (mg/L) at 95% (4th instar larvae) | Toxicity index % (4th instar larvae) | LC50 [1] | LC50 [2] | LC50 [3] | Insecticidal activity (in words) (compared with reference insecticide Diflubenzuron)
1 | O=C(NC(=S)Nc1ccccc1NC(=S)NC(=O)c1ccco1)c1ccco1 [Compound 2, N-[(2-{[(furan-ylcarbonyl)carbamothioyl]amino}phenyl)carbamothioyl]furan-2-carboxamide] | 7450.5 mg/L (≈ 18000 µM) | 10.6% | 1837.2 mg/L (≈ 4430 µM) | 14.7% | 424 mg/L (≈ 1020 µM) | 976 mg/L (≈ 2350 µM) | 424 mg/L (≈ 1020 µM) | active against Spodoptera littoralis
2 | O=C(NC(=O)c1c(F)cccc1F)Nc1ccc(Cl)cc1 [Diflubenzuron, reference compound] | 520.0 mg/L (≈ 1670 µM) | 100% | 1540.5 mg/L (≈ 4960 µM) | 100% | 45.2 mg/L (≈ 145 µM) | 144 mg/L (≈ 464 µM) | 45.2 mg/L (≈ 145 µM) | 
